According to ChEMBL document CHEMBL1201862, “PubChem BioAssay data set” (2004):
Active and inactive are the calls of the source.

How the values were obtained:
Cytochrome P450 3A4 [1] = target: T1, Cytochrome P450 3A4 (Homo sapiens, UniProt P08684);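 note: CYP3A4 tested as one member of a cytochrome P450 panel screen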
Leucine aminopeptidase = target: T2, Leucine aminopeptidase (Plasmodium falciparum 3D7, UniProt Q8IL11); test: P. falciparum M17LAP inhibitors, primary screen, biochemical, fluorogenic H-Leu-NHMec substrate, 1536-well (AID 1619); format: functional
T2 sequence (Q8IL11 whole entry): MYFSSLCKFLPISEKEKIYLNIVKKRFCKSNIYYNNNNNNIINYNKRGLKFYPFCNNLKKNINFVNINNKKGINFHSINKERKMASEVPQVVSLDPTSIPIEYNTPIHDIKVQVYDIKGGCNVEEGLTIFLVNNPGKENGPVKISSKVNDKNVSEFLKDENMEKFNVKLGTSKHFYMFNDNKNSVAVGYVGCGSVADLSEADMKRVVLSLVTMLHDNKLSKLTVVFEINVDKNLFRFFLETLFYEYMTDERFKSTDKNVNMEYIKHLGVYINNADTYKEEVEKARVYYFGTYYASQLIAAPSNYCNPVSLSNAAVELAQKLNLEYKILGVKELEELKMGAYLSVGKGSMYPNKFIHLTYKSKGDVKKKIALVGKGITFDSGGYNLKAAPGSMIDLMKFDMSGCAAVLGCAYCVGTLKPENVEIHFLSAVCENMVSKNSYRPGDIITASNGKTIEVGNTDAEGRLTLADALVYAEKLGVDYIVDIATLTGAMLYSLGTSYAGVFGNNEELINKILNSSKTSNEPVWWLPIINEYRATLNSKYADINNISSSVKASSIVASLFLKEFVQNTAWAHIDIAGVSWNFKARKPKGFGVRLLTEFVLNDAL

Cytochrome P450 2C9 [2] = target: T3, Cytochrome P450 2C9 (Homo sapiens, UniProt P11712)
T3 sequence (P11712 whole entry): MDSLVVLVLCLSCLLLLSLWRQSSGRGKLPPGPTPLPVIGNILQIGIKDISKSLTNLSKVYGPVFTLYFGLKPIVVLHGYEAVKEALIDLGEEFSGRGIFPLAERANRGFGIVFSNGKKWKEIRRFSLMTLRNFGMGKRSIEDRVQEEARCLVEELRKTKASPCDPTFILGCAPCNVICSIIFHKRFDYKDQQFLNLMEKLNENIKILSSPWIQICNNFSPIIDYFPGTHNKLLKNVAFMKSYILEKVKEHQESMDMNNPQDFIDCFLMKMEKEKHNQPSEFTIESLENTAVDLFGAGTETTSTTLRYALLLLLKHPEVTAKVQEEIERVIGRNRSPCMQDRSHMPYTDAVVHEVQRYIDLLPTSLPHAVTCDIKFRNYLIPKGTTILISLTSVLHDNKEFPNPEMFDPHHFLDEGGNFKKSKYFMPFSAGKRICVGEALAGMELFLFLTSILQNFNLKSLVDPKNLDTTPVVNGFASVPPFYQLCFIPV

Cytochrome P450 1A2 = target: T4, Cytochrome P450 1A2 (Homo sapiens, UniProt P05177);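 note: PubChem cytochrome P450 panel assay, CYP1A2 panel member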
T4 sequence (P05177 whole entry): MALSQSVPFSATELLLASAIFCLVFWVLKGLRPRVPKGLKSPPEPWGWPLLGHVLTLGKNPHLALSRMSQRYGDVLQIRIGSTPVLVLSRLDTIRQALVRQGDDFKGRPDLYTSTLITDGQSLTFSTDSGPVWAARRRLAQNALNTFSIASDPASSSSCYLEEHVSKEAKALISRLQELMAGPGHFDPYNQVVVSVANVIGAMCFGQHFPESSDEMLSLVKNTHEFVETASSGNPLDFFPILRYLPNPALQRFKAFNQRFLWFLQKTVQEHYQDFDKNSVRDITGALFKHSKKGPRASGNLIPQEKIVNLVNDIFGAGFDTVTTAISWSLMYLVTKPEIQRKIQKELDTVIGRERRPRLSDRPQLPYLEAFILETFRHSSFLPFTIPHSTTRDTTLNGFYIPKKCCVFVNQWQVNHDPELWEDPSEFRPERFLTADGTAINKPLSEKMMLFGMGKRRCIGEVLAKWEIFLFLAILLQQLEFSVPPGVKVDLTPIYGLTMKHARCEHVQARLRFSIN

Cytochrome P450 2D6 = Cytochrome P450 2D6 (Homo sapiens, UniProt P10635);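 note: CYP2D6 member of a cytochrome P450 panel assay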
Sequence of Cytochrome P450 2D6 (P10635 whole entry): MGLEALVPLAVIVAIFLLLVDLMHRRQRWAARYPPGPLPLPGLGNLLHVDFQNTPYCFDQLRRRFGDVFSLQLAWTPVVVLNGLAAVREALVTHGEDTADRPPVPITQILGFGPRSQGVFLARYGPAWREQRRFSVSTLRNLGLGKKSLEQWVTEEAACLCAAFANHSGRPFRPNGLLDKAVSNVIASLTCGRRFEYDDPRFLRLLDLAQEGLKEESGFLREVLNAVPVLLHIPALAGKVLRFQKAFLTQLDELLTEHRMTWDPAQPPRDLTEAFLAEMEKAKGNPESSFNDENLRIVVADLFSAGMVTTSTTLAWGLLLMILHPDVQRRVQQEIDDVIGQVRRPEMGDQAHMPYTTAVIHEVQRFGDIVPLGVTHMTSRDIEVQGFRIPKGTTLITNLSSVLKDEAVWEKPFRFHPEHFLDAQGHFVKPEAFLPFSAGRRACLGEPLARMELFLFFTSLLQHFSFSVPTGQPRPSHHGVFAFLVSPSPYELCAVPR

[3] = Luminescence Cell-Based Dose Confirmation HTS to Identify Inhibitors of Platelet Dense Granule Release. [Related pubchem assays: 1663 (Primary HTS), 1678 (Summary of Project)]; format: functional
[4] = target: Luciferin 4-monooxygenase (Photinus pyralis, UniProt P08659); test: firefly luciferase enzyme inhibitors, dose response, biochemical, luminescence (AID 1891)
Sequence of Luciferin 4-monooxygenase (P08659 whole entry): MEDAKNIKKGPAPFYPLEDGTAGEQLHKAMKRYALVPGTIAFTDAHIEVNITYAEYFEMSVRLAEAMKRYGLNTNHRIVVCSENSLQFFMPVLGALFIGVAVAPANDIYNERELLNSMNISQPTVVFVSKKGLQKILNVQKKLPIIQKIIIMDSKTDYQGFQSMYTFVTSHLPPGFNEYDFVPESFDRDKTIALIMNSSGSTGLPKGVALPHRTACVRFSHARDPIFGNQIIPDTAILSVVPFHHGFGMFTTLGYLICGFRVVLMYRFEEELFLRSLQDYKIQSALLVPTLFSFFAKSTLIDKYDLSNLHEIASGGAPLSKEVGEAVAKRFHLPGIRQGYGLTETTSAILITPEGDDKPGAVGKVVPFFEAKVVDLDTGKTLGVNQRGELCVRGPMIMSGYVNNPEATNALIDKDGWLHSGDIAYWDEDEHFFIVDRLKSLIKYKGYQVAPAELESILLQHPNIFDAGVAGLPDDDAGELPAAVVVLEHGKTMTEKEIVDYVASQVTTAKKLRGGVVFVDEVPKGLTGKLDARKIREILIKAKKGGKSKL

Cytochrome P450 3A4 [5] = target: T1, Cytochrome P450 3A4; remark: listed apart in the source
Cytochrome P450 2C19 = Cytochrome P450 2C19 (Homo sapiens, UniProt P33261); test: Cytochrome panel assay with activity outcomes. Panel member name: p450-cyp2c19 Compounds with AC50 equal or less than 10 uM are considered active; format: functional; settings: read-out: AC50
Sequence of Cytochrome P450 2C19 (P33261 whole entry): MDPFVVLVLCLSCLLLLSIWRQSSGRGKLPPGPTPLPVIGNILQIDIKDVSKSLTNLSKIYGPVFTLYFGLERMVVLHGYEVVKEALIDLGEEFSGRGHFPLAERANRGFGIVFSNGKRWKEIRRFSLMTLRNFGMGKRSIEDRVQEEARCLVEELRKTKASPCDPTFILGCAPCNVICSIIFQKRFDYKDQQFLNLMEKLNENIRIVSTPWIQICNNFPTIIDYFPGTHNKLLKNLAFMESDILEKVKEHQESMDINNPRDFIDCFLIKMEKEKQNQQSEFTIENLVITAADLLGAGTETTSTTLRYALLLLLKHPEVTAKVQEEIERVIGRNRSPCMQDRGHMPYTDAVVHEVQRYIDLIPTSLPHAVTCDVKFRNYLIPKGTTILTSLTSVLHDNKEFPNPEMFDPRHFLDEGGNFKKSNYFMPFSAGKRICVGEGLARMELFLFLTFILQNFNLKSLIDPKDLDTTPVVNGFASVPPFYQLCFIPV

[6] = target: T5, Polyadenylate-binding protein 1 (Homo sapiens, UniProt P11940); test: PABP1 MLLE–PAM2 interaction inhibitors, dose response, miRNA deadenylation inhibitor project, biochemical, fluorescence polarization, Cy5-PAM2 peptide, secondary (AID 602260); format: functional; settings: read-out: IC50_Mean
T5 sequence (P11940 whole entry): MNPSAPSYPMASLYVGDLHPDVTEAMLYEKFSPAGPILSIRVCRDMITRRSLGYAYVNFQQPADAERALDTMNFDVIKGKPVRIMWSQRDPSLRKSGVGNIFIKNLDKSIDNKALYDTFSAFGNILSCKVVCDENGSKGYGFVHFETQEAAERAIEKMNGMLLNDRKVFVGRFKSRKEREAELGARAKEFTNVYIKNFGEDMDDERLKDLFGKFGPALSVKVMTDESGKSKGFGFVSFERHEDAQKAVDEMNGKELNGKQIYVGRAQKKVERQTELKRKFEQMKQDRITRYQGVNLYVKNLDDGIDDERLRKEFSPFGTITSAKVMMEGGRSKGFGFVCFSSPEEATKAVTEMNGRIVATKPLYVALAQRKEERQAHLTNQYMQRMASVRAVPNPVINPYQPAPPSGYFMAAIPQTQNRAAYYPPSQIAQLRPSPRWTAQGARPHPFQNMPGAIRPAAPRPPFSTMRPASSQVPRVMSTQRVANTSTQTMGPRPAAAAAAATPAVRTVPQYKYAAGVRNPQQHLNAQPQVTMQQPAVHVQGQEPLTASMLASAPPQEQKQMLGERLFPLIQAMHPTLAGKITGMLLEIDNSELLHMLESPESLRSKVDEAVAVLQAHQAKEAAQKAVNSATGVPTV

[7] = target: T6, Zinc finger protein mex-5 (Caenorhabditis elegans, UniProt Q9XUB2); test: MEX-5/TCR-2 RNA interaction inhibitors, dose response, biochemical, C. elegans, fluorescence polarization (AID 1960)
T6 sequence (Q9XUB2 whole entry): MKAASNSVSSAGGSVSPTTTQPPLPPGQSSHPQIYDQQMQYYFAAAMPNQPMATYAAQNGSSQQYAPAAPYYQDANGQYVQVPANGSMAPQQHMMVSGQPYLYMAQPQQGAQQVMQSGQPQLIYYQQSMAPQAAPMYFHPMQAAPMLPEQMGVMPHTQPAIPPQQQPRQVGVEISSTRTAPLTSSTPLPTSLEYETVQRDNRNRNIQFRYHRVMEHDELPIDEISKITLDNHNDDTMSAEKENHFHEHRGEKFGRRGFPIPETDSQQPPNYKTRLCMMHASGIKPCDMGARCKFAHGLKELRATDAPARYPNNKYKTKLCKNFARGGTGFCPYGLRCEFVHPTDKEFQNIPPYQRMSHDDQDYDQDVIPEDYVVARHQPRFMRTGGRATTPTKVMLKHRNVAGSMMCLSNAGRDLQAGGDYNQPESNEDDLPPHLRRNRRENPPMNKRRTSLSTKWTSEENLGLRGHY

[8] = target: T7, RNA-binding protein pos-1 (Caenorhabditis elegans, UniProt G5EF15); test: inhibitors of POS-1/mex-3 RNA binding, dose response, biochemical, fluorescence polarization (AID 1964);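 note: purified POS-1 fused to maltose binding protein made in E. coli; potency of compounds blocking POS-1 binding to fluorescent RNA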
T7 sequence (G5EF15 whole entry): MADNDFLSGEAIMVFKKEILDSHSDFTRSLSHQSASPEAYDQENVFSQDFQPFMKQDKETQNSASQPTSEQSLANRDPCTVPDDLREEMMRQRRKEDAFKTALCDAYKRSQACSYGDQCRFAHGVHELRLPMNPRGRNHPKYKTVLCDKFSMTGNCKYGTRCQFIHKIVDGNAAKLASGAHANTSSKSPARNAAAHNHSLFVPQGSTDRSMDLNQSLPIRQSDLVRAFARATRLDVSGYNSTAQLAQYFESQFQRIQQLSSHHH

[9] = target: T5, Polyadenylate-binding protein 1; test: PABP1 MLLE–PAM2 binding inhibitor potency, dose response, biochemical, fluorescence polarization, FITC-PAM2 peptide (AID 602259); format: functional; settings: read-out: IC50_Mean
Cytochrome P450 2C9 [10] = target: T3, Cytochrome P450 2C9; remark: listed apart in the source
[11] = Luminescence Cell-Based Dose Confirmation HTS to Identify Activators of 5'UTR Stem-Loop Driven Alpha-Synuclein mRNA Translation in H4 Neuroglioblastoma Cells. [Related pubchem assays: 1829 (Project Summary), 1814 (Primary HTS)]; format: functional
H4 = test: Luminescence Cell-Based Dose Response HTS to Identify Activators of 5'UTR Stem-Loop Driven Prion Protein mRNA Translation in H4 Neuroglioblastoma Cells. [Related pubchem assays: 1829 (Project Summary), 1814 (Primary HTS)]; format: functional; settings: Homo sapiens
[12] = Luminescence Cell-Based Dose Response HTS to Identify Activators of Luciferase Translation or Activity in H4 […] Cells. [Related pubchem assays: 1829 (Project Summary), 1814 (Primary HTS)]; format: functional
[13] = growth suppression of beta-catenin-knockout colon cells, dose response, cell-based, HCT116, human colon tumor (AID 1045); format: functional;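 note: HCT116 colon tumor cells with beta catenin knocked out; cells exposed to compound for 60 hours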
[14] = growth suppression of PTEN-null colon cells, dose response, cell-based, HCT116 PTEN knockout (AID 1047); format: functional;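 note: HCT116 colon tumor cells with PTEN knocked out; cells exposed to compound for 60 hours before readout; potency for loss of cell viability measured by luminescence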

T1 sequence (P08684 whole entry): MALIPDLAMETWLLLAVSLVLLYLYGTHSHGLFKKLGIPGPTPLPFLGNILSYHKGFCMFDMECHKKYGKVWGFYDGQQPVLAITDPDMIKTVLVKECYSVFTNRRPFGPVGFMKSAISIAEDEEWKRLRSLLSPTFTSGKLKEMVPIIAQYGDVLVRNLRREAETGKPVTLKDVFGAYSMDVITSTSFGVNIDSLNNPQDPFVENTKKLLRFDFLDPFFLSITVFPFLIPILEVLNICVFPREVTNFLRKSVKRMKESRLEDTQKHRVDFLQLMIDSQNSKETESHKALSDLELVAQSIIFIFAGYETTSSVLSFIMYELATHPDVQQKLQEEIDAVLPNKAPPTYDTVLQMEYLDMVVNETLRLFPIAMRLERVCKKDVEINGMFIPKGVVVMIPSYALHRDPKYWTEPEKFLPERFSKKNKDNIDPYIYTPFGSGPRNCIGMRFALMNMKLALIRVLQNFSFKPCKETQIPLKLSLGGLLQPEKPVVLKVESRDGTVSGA

## C=CC[C@H](N)C(=O)O
Cytochrome P450 3A4 [1]
  AC50: inconclusive

## O=C(O)CCN1C(=O)CC(N2C(=O)/C(=C/c3ccc(Cl)cc3)SC2=S)C1=O (stereo unspecified)
Leucine aminopeptidase
  IC50: 22.5 µM (active)

## O=C(NCc1cccs1)C1CCN(S(=O)(=O)c2cccc3nsnc23)CC1
Cytochrome P450 2C9 [2]
  AC50: inconclusive
Cytochrome P450 1A2
  AC50: 0.158 µM (inconclusive)
Cytochrome P450 2D6
  AC50: 6.31 µM (inconclusive)

## CC1(C)CC(N2CCC(=O)NC2=S)CC(C)(C)N1
[3]
  EC50: > 112 µM (not active)
[4]
  EC50: > 112 µM (not active)

## O=C(OCC(=O)N1CCCC1)c1ccccc1OCc1ccccc1
Leucine aminopeptidase
  IC50: 4.38 µM (active)

## Cc1ccccc1-n1c(=O)cc(N2CC(C)OC(C)C2)[nH]c1=O (stereo unspecified)
Cytochrome P450 3A4 [1]
  AC50: inconclusive

## CCC(=O)Nc1cccc(-c2nc3ccccc3c(=O)o2)c1
Cytochrome P450 3A4 [5]
  AC50: 28.2 µM (inconclusive)
Cytochrome P450 2C9 [2]
  AC50: inconclusive
Cytochrome P450 2C19
  AC50: 39.8 µM (inconclusive)
Cytochrome P450 2D6
  AC50: 31.6 µM (inconclusive)

## CCN(CC)CCO[C@H]1CC[C@@]2(C)C(=CC[C@@H]3[C@H]2CC[C@]2(C)C(=O)CC[C@H]32)C1
Cytochrome P450 3A4 [1]
  AC50: inconclusive

## Cc1ccccc1-c1cc(NCCN2CCOCC2)ncn1
Cytochrome P450 1A2
  AC50: 31.6 µM (inconclusive)
Cytochrome P450 3A4 [1]
  AC50: inconclusive

## Cc1ccc(N=C(S)c2ccc3ccccc3n2)c(C)c1
[6]
  IC50: > 66 µM (inactive)
[3]
  EC50: > 112 µM (not active)
[7]
  EC50: > 300 µM (not active)
[8]
  EC50: > 300 µM (not active)
[9]
  IC50: > 66 µM (inactive)
[4]
  EC50: > 112 µM (not active)

## Cc1c(Nc2nc3ccccc3nc2NS(=O)(=O)c2cccc(Cl)c2)c(=O)n(-c2ccccc2)n1C
Leucine aminopeptidase
  IC50: 21.3 µM (active)

## Cc1ccc(O)c(N=Nc2ccccc2)n1
[3]
  EC50: < 0.701 µM (active)
[4]
  EC50: 1.2 µM (active)

## Cc1cccc(C(=N)NOC(=O)c2ccccc2Cl)c1
[3]
  EC50: 3.84 µM (active)
[4]
  EC50: 1.96 µM (active)

## CCS(=O)(=O)N1CCC[C@H]2CN3CCc4cc(OC)ccc4[C@@H]3C[C@@H]21
Cytochrome P450 2C9 [2]
  AC50: inconclusive
Cytochrome P450 1A2
  AC50: 31.6 µM (inconclusive)

## O=C(CCNC(=O)c1ccc(Br)o1)NCc1ccccn1
Cytochrome P450 3A4 [5]
  AC50: 14.1 µM (inconclusive)
Cytochrome P450 2C9 [2]
  AC50: inconclusive
Cytochrome P450 2C19
  AC50: 17.8 µM (inconclusive)
Cytochrome P450 1A2
  AC50: 14.1 µM (inconclusive)

## CSc1nc2ccccc2cc1/C=C(\C#N)c1ccccc1
Cytochrome P450 3A4 [1]
  AC50: inconclusive

## C[C@@]12CC[C@@H]3[C@@H](CC[C@H]4C[C@@H](O)CC[C@]43C)[C@H]1CC[C@@H]2c1cc(C(F)(F)F)[nH]n1
Cytochrome P450 2C9 [10]
  AC50: 7.94 µM (inconclusive)
Cytochrome P450 3A4 [1]
  AC50: inconclusive

## CC(C)c1ccc(-c2cc(C(=O)NN3CCN(C)CC3)c3ccccc3n2)cc1
[11]
  EC50: 3.59 µM (active)
[3]
  EC50: 5.93 µM (active)
H4
  EC50: 9.4 µM (active)
[12]
  EC50: 3.27 µM (active)
[4]
  EC50: 18.2 µM (active)

## Cn1c(=O)c2cc(S(=O)(=O)NCCC(=O)NCCc3ccc(Cl)cc3)ccc2n(C)c1=O
Cytochrome P450 2C9 [2]
  AC50: inconclusive
Cytochrome P450 1A2
  AC50: 0.0398 µM (inconclusive)

## CO/N=C/c1ccc(N2CCN(C(=O)c3ccc(Cl)cc3Cl)CC2)c([N+](=O)[O-])c1
[13]
  EC50: 22.3 µM (active)
[14]
  EC50: 20.3 µM (active)
Cytochrome P450 3A4 [1]
  AC50: inconclusive

## Oc1cccc(/C=N/Nc2nn3cnnc3c3ccccc23)c1
[3]
  EC50: 18.8 µM (active)
[4]
  EC50: 5.06 µM (active)

## O=C(NC1CCN(Cc2ccccc2)CC1)c1ccc(I)cc1
Cytochrome P450 2C9 [10]
  AC50: 39.8 µM (inconclusive)
Cytochrome P450 1A2
  AC50: 39.8 µM (inconclusive)
Cytochrome P450 3A4 [1]
  AC50: inconclusive
